Experimental data reported in ChEMBL document CHEMBL3507680, “University of Dundee, Gates Library screen for HepG2 cell viability”.

Experiment: Human HepG2 cell viability assay in 384 well format
Type: toxicity, cell-based
Set-up: dose 125 nL, time 70.5 hour; concentration not given beside the values
Conditions: HepG2 cells, read-out: Inhibition

CCNc1ncc(C(=O)N2Cc3nc(C)[nH]c(=O)c3C2)cn1
cytotoxicity at 70.5 h: 4.44%

CCNC(=O)CN1CCCN(C(=O)C2CCCc3[nH]ncc32)CC1 (centres undefined)
cytotoxicity at 70.5 h: -8.68%

COc1ccc(Cc2nnc(SC)o2)cc1OC
cytotoxicity at 70.5 h: -2.03%

CNc1ncc(CN(C)c2nccc(CCC(F)(F)F)n2)cn1
cytotoxicity at 70.5 h: -2.35%

COC(=O)[C@@H]1C[C@@H](NC(=O)CN2C(=O)N(C)Cc3ccccc32)CN1C
cytotoxicity at 70.5 h: -3.77%

Cc1ccc(-c2nc(CN3C[C@@H](C)NC[C@@H]3C)c(C)o2)s1
cytotoxicity at 70.5 h: -11.5%

CC(C)COC(C)C(=O)N1CCCCC1 (centres undefined)
cytotoxicity at 70.5 h: -3.46%

O=C(C1CCC1)N1CCCC1c1nnc2n1CCCCC2 (centres undefined)
cytotoxicity at 70.5 h: 9.95%

Cc1noc(CN(Cc2cccc(C#N)c2)Cc2cccs2)n1
cytotoxicity at 70.5 h: 0.497%

CN(Cc1ccccc1CNC(=O)C1CNC(=O)N1)C1CCCCC1 (centres undefined)
cytotoxicity at 70.5 h: -4.23%

COc1cccc([C@@H]2N[C@H](c3nccs3)Cc3ccsc32)c1OC
cytotoxicity at 70.5 h: -12.9%

Cc1cccc(NC2CCN(C(=O)Nc3ccc(F)cc3C)CC2)n1
cytotoxicity at 70.5 h: -5.61%

CCCNC(=O)C1CCN(CC(O)c2ccccc2C(F)(F)F)CC1 (centres undefined)
cytotoxicity at 70.5 h: 0.668%

O=S(=O)(NCC1COCCO1)c1ccc(C2CCCCC2)cc1 (centres undefined)
cytotoxicity at 70.5 h: -4.34%

CC(C)=CCN1CCN(Cc2cc(C)n[nH]2)CC1CCO (centres undefined)
cytotoxicity at 70.5 h: 4.87%

CC(NC(=O)NCCCn1cccn1)c1cccnc1 (centres undefined)
cytotoxicity at 70.5 h: 18.1%

Cc1nccn1C1CCCN(C(=O)c2cccc(Cn3ccnc3)c2)C1 (centres undefined)
cytotoxicity at 70.5 h: -1.32%

CCS(=O)(=O)c1ccc2c(c1)OCCCO2
cytotoxicity at 70.5 h: 0.078%

Cc1[nH]c(-c2ccccc2)nc1C(=O)N1CCC2(CCCO2)CC1
cytotoxicity at 70.5 h: -2.81%

CC(C)(C#N)c1ccccc1CN(CCO)Cc1ccsc1
cytotoxicity at 70.5 h: -7.26%

CC(C)C1CN(C(=O)c2ccc(Cl)cn2)CCCN1CC1CC1 (centres undefined)
cytotoxicity at 70.5 h: -6.77%

NC(=O)C1CCN(CC(=O)N(Cc2ccccc2)Cc2nccs2)CC1
cytotoxicity at 70.5 h: -7.45%

COCCN1CCN(CCS(=O)(=O)C(F)(F)F)CC1C (centres undefined)
cytotoxicity at 70.5 h: -6.2%

N#Cc1ccc(NC2CCN(Cc3ccccn3)CC2)c(F)c1
cytotoxicity at 70.5 h: -9.28%

Cc1nnc(N2C[C@@H]3CCCO[C@@H]3[C@H](N3CCCC3=O)C2)s1
cytotoxicity at 70.5 h: -9.55%

CCN1CCN(Cc2ccnc(-c3cccnc3)n2)CC1
cytotoxicity at 70.5 h: -2.52%

O=C(NCC1CC1)C1=NOC2(CCN(Cc3ccsc3)C2)C1 (centres undefined)
cytotoxicity at 70.5 h: -7.31%

CNc1cncc(C2CCCN2S(=O)(=O)c2ccccc2)n1 (centres undefined)
cytotoxicity at 70.5 h: 0.983%

CC(NC(=O)Cc1cc2c(cc1Cl)OCCO2)c1ccncn1 (centres undefined)
cytotoxicity at 70.5 h: -2.12%

Cn1nccc1C(=O)N1CCC(n2cc(-c3ccsc3)nn2)CC1
cytotoxicity at 70.5 h: -3.85%

CCOCCn1nc(C)cc1C(=O)N1CC[C@](C)(O)C(C)(C)C1
cytotoxicity at 70.5 h: 2.52%

Cc1cc(CN2CCO[C@H]3[C@H](OCc4csc(C)n4)CC[C@@H]32)no1
cytotoxicity at 70.5 h: 2.95%

Cc1noc(C)c1-c1ccnc(C2CCN(S(=O)(=O)N(C)C)CC2)c1
cytotoxicity at 70.5 h: -2.76%

COC(=O)C(c1ccccc1)N(C)C(=O)c1ccnc(C)n1 (centres undefined)
cytotoxicity at 70.5 h: -8.31%

Cc1nn(C)cc1CCC(=O)N1CCCC(n2cncn2)C1 (centres undefined)
cytotoxicity at 70.5 h: 6.4%

CS(=O)(=O)c1ccc(CNC(=O)N2CCC(c3ccccc3)CC2)cc1
cytotoxicity at 70.5 h: -2.27%

O=C1C[C@H]2[C@@H](CCN2C(=O)c2ccoc2)N1CCN1CCOCC1
cytotoxicity at 70.5 h: -7.58%

Cc1cc(C(=O)N2CCC3(CC2)C(=O)NCCN3CC(C)C)c(C)o1
cytotoxicity at 70.5 h: -2.92%

Cc1csc(C(C#N)C(=O)NCc2cccnc2)n1 (centres undefined)
cytotoxicity at 70.5 h: -5.59%

c1cn(CC2CC2)c(C2CCN(CCC3CCOC3)CC2)n1 (centres undefined)
cytotoxicity at 70.5 h: 21.7%

CCn1cc(CN2CCCC(c3[nH]ncc3-c3ccc(F)cc3)C2)cn1 (centres undefined)
cytotoxicity at 70.5 h: -19.8%

O=C(NCC1CC1)C1CN(C(=O)NC2CCCC2)Cc2cncn2C1 (centres undefined)
cytotoxicity at 70.5 h: -6.07%

Cc1cc(SC(C)(C)C)ccc1NC(C)C(=O)NC(N)=O (centres undefined)
cytotoxicity at 70.5 h: 9.69%

COc1c(F)cc(F)cc1-c1nc2c([nH]1)CCNC2
cytotoxicity at 70.5 h: 14.9%

O=C(C1CC1)N1CCc2ccccc2C12CCNCC2
cytotoxicity at 70.5 h: -1.81%

O=C(CC1CC1)N1CCC2(CC1)CN(c1ncc(F)cn1)CCO2
cytotoxicity at 70.5 h: -9.05%

CCn1cc(NC(=O)C2CCN(CCOC(C)C)CC2)cn1
cytotoxicity at 70.5 h: -1.36%

N#Cc1cccc(N2CCC(CO)(CCCc3ccccc3)CC2)n1
cytotoxicity at 70.5 h: -4.41%

O=C(CCN1CCCN(c2nccs2)CC1)Nc1ccccc1
cytotoxicity at 70.5 h: 28.8%

O=C(Cn1c(=O)oc2ccccc21)NCC(O)c1ccc2c(c1)CCO2 (centres undefined)
cytotoxicity at 70.5 h: -2.64%

N#Cc1ccccc1N1CCCN(C(=O)CCc2cccs2)CC1
cytotoxicity at 70.5 h: -8.79%

Cc1nc(C2CCN(C[C@H](C)CO)CC2)cc(N2CCOCC2)n1
cytotoxicity at 70.5 h: -0.547%

Cc1nccn1C1CCCN(C(=O)c2ccc(-n3cccn3)nc2)C1 (centres undefined)
cytotoxicity at 70.5 h: 0.896%

COc1coc(CN2CCCC(CCc3ccccc3C)C2)cc1=O (centres undefined)
cytotoxicity at 70.5 h: 2.52%

CN1CCN(C(=O)c2cccn2C)c2ccccc2C1
cytotoxicity at 70.5 h: -6.26%

COCCc1noc(C2CCCN(c3nc(N)nc4c3CCCC4)C2)n1 (centres undefined)
cytotoxicity at 70.5 h: 3.87%

O=C1NC2(CCN(C(=O)CN3CCOCC3)CC2)Nc2ccc(Cl)cc21
cytotoxicity at 70.5 h: -2.29%

COCC(=O)N1CCc2ccc(=O)n(CC3CC3)c2CC1
cytotoxicity at 70.5 h: -2.86%

CCCC(=O)N1CCC(c2nc(O)c3c(n2)CCN(C2CCCC2)C3)C1 (centres undefined)
cytotoxicity at 70.5 h: -0.72%

O=C(C1CC1)N1CC[C@H](O)[C@@H]1Cc1ccccc1
cytotoxicity at 70.5 h: -3.79%

CCC(C)N(Cc1cccnc1)Cc1ccccc1Cn1cccn1 (centres undefined)
cytotoxicity at 70.5 h: -9.31%

Cc1ccc2c(n1)N(Cc1cccnc1)CCN(C(=O)C1CCC1)C2
cytotoxicity at 70.5 h: -12.9%

Cc1nn2cc(CCNC(=O)c3cc(C(C)C)no3)nc2s1
cytotoxicity at 70.5 h: 12.6%

O=C(c1cc(-n2cccc2)ccc1Cl)N1CCC2(CC1)OCCO2
cytotoxicity at 70.5 h: 2.22%

CCN1CCCN(S(=O)(=O)c2cnc3onc(C)c3c2)CC1
cytotoxicity at 70.5 h: -7.12%

Fc1cccc(CN2CCC[C@H](Cn3nnc(-c4ccccn4)n3)C2)c1
cytotoxicity at 70.5 h: -4.05%

CN(Cc1nnc(C2CC2)o1)C(c1ccc(F)cc1)c1cccnc1 (centres undefined)
cytotoxicity at 70.5 h: 0.0755%

CN(C)c1ccc(C(=O)N2CCN(C(=O)N3CCCCC3)CC2)nn1
cytotoxicity at 70.5 h: -18.5%

CC(=O)NC1CCCN(Cc2ccc(-n3ccnc3)cc2)C1 (centres undefined)
cytotoxicity at 70.5 h: -4.74%

Cc1cc(CNC(=O)NC(C)c2ccc(N3CCOCC3)cc2)no1 (centres undefined)
cytotoxicity at 70.5 h: -5.55%

Cn1cc(NC(=O)CNC(=O)N2CCN(c3ccc(Cl)cc3)CC2)cn1
cytotoxicity at 70.5 h: -5.62%

CN1CCN(Cc2cccnc2)C(=O)C12CCN(CC1CCOC1)CC2 (centres undefined)
cytotoxicity at 70.5 h: -6.06%

CCN(CC)Cc1nc2c(o1)CN(S(=O)(=O)c1cccs1)C2
cytotoxicity at 70.5 h: -10.4%

CC(C)(CNC(=O)C(C)(C)c1ccccc1F)C(N)=O
cytotoxicity at 70.5 h: 2.08%

CCN1CCCC1CN(Cc1cc[nH]n1)CC1CCN(CCOC)CC1 (centres undefined)
cytotoxicity at 70.5 h: 6.24%

CCOc1ccc(CN(CCOC)C(=O)c2ccncc2Cl)cc1
cytotoxicity at 70.5 h: -3.6%

CN(Cc1noc(C(C)(C)C)n1)C1CCCN(c2cccnn2)C1 (centres undefined)
cytotoxicity at 70.5 h: 44.8%

Cc1nc(CN2CCN(C(=O)CCC(=O)c3ccccc3)CC2)no1
cytotoxicity at 70.5 h: 12.6%

Cc1csc(CN2C[C@@H]3CN(C)CCO[C@@H]3C2)n1
cytotoxicity at 70.5 h: -3.79%

Cc1noc(C)c1CNC(=O)C(C)Oc1ccccc1F (centres undefined)
cytotoxicity at 70.5 h: -4.89%

CCN1CCC(CC(=O)N2CCN(c3ccccc3OC)CC2C)CC1 (centres undefined)
cytotoxicity at 70.5 h: 23.7%

Cc1nc(C)c(S(=O)(=O)NC(=O)c2sccc2C)s1
cytotoxicity at 70.5 h: -14.3%

CCNC(=O)N1CCC(NC(=O)NCCc2ccc(C)cc2C)C1 (centres undefined)
cytotoxicity at 70.5 h: -3.65%

CC(C)C1CN(C(=O)c2cn3cc(Cl)cnc3n2)CCCN1CC1CC1 (centres undefined)
cytotoxicity at 70.5 h: 20.2%

O=C(NC1CCc2c(ccc(=O)n2CC2CC2)C1)c1cscn1 (centres undefined)
cytotoxicity at 70.5 h: 18.1%

Cc1ncc(COc2ccc(N(C)S(C)(=O)=O)cc2)s1
cytotoxicity at 70.5 h: 3.82%

CCN1C[C@@H](C(=O)O)[C@H](c2cccc(OC)c2)C1
cytotoxicity at 70.5 h: 5.16%

O=C1CC2(CCN(Cc3ccco3)C2)CN1c1ccc2c(c1)OCO2 (centres undefined)
cytotoxicity at 70.5 h: 11.6%

Cc1nc(NC(=O)CNC(=O)c2c(F)cccc2Cl)n[nH]1
cytotoxicity at 70.5 h: -6.51%

CCC(C)S(=O)(=O)N(Cc1ccco1)Cc1ccccc1O (centres undefined)
cytotoxicity at 70.5 h: -10.4%

O=C(c1csc(-c2cccs2)n1)N1CCCC1Cn1cccn1 (centres undefined)
cytotoxicity at 70.5 h: -18.2%

CC1CCN(C(=O)NCCc2cc(F)ccc2F)C1 (centres undefined)
cytotoxicity at 70.5 h: -11.9%

COc1ccc2c(c1)CCCN2Cc1nc2c(cnn2C)c(=O)[nH]1
cytotoxicity at 70.5 h: -11.4%

Cc1ccc(NC2CCN(C(=O)c3ccnc(N(C)C)c3)CC2)nn1
cytotoxicity at 70.5 h: -22.6%

Clc1ccc(C2NCCc3cc4c(cc32)OCCO4)cc1 (centres undefined)
cytotoxicity at 70.5 h: 32.9%

CCc1cc(CN2CCC(CCC(=O)Nc3ccccc3Cl)CC2)on1
cytotoxicity at 70.5 h: -0.0329%

Cc1ccc(CC(=O)NCC(Cc2ccc(F)cc2)C(N)=O)cn1 (centres undefined)
cytotoxicity at 70.5 h: -0.982%

Cc1nc(-c2ccco2)ccc1C(=O)NCC(=O)N1CCCCC1
cytotoxicity at 70.5 h: -117%

c1ccc(CNC[C@H]2COCc3nc4cccnc4n32)cc1
cytotoxicity at 70.5 h: 11.9%

Cc1cc(CN2CCN(C(C)C)C(CCO)C2)[nH]n1 (centres undefined)
cytotoxicity at 70.5 h: 9.92%

Cc1c(-c2nc3cc(S(=O)(=O)N4CCCC4)ccc3n2C)cnn1C
cytotoxicity at 70.5 h: -22.4%

CC(C)Cc1nc(C[S+]([O-])CC(=O)NCc2ccccc2)no1 (centres undefined)
cytotoxicity at 70.5 h: -5.17%

COCC(c1cccc(C(F)(F)F)c1)N(C)C(=O)c1cc(C)n[nH]1 (centres undefined)
cytotoxicity at 70.5 h: 18.4%

O=C(c1ccc(C2CCCO2)s1)N1CCCOCC1 (centres undefined)
cytotoxicity at 70.5 h: -8.57%

CCC(=O)Nc1nnc(CCOc2ccccc2OC)s1
cytotoxicity at 70.5 h: -11.7%

O=c1[nH]c2ncccc2n1C1CCCCC1
cytotoxicity at 70.5 h: -6.95%

Oc1nc(C2CCN(Cc3ccccn3)CC2)cc2ccccc12
cytotoxicity at 70.5 h: 32.3%

Cc1ccc2nc(C3CCCN3Cc3csc(C)n3)[nH]c2c1 (centres undefined)
cytotoxicity at 70.5 h: -6.25%

CCc1nnsc1C(=O)N1CCCN(Cc2cnn(CC)c2)CC1
cytotoxicity at 70.5 h: -7.53%

Cc1noc(C)c1CNCc1c(C(C)C)nn(C)c1N1CCOCC1
cytotoxicity at 70.5 h: -10.5%

COCC(=O)N(C)Cc1ccc(Cl)c(Cl)c1
cytotoxicity at 70.5 h: -12.6%

COCCNC(=O)N1CCN(C(=O)c2nsc3ccc(C)cc23)CC1
cytotoxicity at 70.5 h: -17.5%

Cc1ccc(N2CCCC(N3CCC(N(C)C)CC3)C2=O)cc1 (centres undefined)
cytotoxicity at 70.5 h: 13.2%

O=C(NC1CCN(c2ccc(-c3ccccc3F)nn2)C1)c1cc[nH]n1 (centres undefined)
cytotoxicity at 70.5 h: -12.8%
